The text below walks through data of publication PMC12199414, “A Self‐Assembling LYTAC Mediates CTGF Degradation and Remodels Inflammatory Tumor Microenvironment for Triple‐Negative Breast Cancer Therapy” (Advanced Science, 2025).

Residues, ends and D or L forms follow the SMILES beside them. No end group written: not given here.

One series has as its system red blood cells. As to the kind of experiment: Hemolysis assay. The class given is cell-based, mice. Particulars: mouse erythrocytes, 0-30 × 10^−6 M, 1 h, 37 °C, absorbance 570 nm. On the procedure:
The hemolytic activities of CL8, CL8‐M6P3, and NanoCLY were determined by monitoring hemoglobin release from red blood cells. Fresh erythrocytes were obtained from the whole blood of mice by centrifugation (1000 × g for 30 min at 4 °C), and washed three times with cold 0.9% NaCl. The erythrocytes were dispensed into 96‐well plates, incubated with CL8, CL8‐M6P3 and NanoCLY at specified concentrations (0, 0.3, 1, 3, 10, and 30 × 10^−6 M) for 1 h at 37 °C, centrifuged at 1000 × g for 10 min, the supernatant samples were collected, and the absorbance at 570 nm was measured by microplate reader Cytation 5 (Biotek, USA). The negative control group was defined as the absorbance obtained in 1× PBS (A PBS), and 100% hemolysis in 0.1%Triton X‐100 (v/v) (A Triton). The hemolysis percentage was calculated as: (A peptide − A PBS)/(ATriton − A PBS) × 100%.

The target of another series is T1, rhCTGF‐His tag protein (Homo sapiens, UniProt P29279).
T1 construct: purchased Novoprotein C15W
T1 sequence (P29279 27-349): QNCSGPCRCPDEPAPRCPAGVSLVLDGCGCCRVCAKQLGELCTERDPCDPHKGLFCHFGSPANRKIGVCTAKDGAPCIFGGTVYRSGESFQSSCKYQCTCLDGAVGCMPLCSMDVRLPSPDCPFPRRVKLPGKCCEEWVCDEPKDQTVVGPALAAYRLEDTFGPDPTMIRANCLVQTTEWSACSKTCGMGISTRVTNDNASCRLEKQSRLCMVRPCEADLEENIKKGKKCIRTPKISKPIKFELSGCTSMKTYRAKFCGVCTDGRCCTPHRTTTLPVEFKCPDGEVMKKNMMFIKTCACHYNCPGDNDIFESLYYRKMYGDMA
The series can be described thus: MicroScale Thermophoresis (MST) binding to CTGF. Particulars: Monolith NT.115, protein labelled with Monolith RED-NHS, 2 × 10^−6 M protein, PBST buffer (PBS, 0.05% Tween-20). As to the method:
(§1) The affinity between various peptides (CL8, CC14, LT12, CC14S, CE8, FH14S, FH14, and CL8‐M6P3) and purified rhCTGF‐His tag protein (C15W, Novoprotein), IGFBP protein, and TSP proteins, was evaluated using microscale thermophoresis (NanoTemper, Germany). Additionally, the interaction between CL8‐M6P3 and the CCN1, CCN3, and CCN4 proteins was measured using the Dianthus system (NanoTemper, Germany). Prior to measurements, the purified proteins were labeled with fluorescent dye Monolith RED‐NHS (MO‐L011, NanoTemper). For the MST assay, 2 × 10^−6 M proteins (10 µL) were added with variable concentrations of the above peptides in PBST buffer (10 µL, PBS containing 0.05% Tween‐20). After a short incubation, the mixture was loaded into the Monolith NT.115 capillary (MO‐K022, NanoTemper) and analyzed using the Monolith NT.115 (NanoTemper, Germany).
In general terms: In MST a laser heats a spot of the sample, and binding alters the fluorescence response.

A further series concerns the target T2, CTGF (Homo sapiens, UniProt P29279).
T2 construct: endogenous in cells; host or cells: BT549 and MDA-MB-231 (human TNBC cell lines)
T2 sequence (P29279 27-349): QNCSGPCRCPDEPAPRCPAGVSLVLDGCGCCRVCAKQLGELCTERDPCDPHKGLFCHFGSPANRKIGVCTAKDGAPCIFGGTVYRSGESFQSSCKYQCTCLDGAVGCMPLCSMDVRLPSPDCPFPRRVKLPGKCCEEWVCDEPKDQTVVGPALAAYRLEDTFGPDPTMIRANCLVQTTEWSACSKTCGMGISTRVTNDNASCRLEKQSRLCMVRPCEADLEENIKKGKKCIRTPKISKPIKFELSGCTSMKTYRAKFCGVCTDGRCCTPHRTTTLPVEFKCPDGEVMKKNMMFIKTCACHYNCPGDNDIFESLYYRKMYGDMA
The series can be described thus: ELISA of extracellular CTGF in culture media of TNBC cells. The conditions noted are these: in vitro, BT549 and MDA-MB-231 culture media, 12 h. The class given is cell-based. On the procedure:
BT549 and MDA‐MB‐231 cells were treated with various concentrations of CL8‐M6P3 or NanoCLY for 12 h. Extracellular CTGF protein level in conditioned media was quantified by a human CTGF ELISA kit following the manufacturer's instructions (ab261851, Abcam and CSB‐E07875h, Cusabio). Extracellular CCN1, CCN3, and CCN4 protein levels were quantified using respective ELISA kits (HY‐P7842, HY‐P701327, HY‐P78051, MCE) following the manufacturer's instructions (CSB‐EL015956HU, CSB‐EL026119HU, CSB‐E13884h, Cusabio). Additionally, BSP and β‐CTx levels in serum were quantified by ELISA kit following the manufacturer's instructions (BPE10823, BPE10438, lengton).

The target in series [1] is IGFBP protein (N-terminal domain of CTGF) (Homo sapiens, UniProt P29279). The series can be described thus: MST binding to IGFBP domain of CTGF. Particulars: Figure S6b. As to the method:
as §1

The target in the next series is T3, CCN3 (Homo sapiens, UniProt P48745).
T3 sequence (P48745 32-357): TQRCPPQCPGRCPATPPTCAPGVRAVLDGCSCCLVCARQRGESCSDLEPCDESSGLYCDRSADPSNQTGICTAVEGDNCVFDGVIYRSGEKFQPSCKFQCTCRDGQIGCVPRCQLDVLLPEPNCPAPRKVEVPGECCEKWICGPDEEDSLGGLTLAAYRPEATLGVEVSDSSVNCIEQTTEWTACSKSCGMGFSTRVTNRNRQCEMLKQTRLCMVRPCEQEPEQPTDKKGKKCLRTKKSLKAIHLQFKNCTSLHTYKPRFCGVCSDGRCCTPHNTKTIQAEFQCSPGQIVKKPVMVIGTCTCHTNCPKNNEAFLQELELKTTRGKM
The series can be described thus: Binding to CCN3 (Dianthus system). The conditions noted are these: Figure S7a. As to the method:
as §1

For series [2], the target named is T4, TSP proteins (C-terminal domain of CTGF) (Homo sapiens, UniProt P29279).
T4 sequence (P29279 198-243 limits assumed): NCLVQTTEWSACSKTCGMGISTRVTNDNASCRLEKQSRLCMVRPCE
As to the kind of experiment: MST binding to TSP domain of CTGF. The conditions noted are these: Figure S6c. As to the method: as §1

In the next series the target is T5, CCN1 (Homo sapiens, UniProt O00622).
T5 sequence (O00622 25-381): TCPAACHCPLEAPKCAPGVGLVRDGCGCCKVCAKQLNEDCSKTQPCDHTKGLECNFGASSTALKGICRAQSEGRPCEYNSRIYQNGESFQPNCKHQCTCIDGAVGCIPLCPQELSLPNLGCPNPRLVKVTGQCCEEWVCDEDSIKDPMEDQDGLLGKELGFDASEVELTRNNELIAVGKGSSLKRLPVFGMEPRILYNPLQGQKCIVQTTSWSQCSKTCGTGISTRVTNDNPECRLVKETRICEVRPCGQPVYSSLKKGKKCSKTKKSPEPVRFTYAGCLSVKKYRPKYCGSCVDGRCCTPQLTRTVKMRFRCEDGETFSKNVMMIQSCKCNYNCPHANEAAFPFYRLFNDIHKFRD
As to the kind of experiment: Binding to CCN1 (Dianthus system). The conditions noted are these: Figure S7a. As to the method:
as §1

A further series deals with T6, CCN4 (Homo sapiens, UniProt O95388).
T6 sequence (O95388 23-367): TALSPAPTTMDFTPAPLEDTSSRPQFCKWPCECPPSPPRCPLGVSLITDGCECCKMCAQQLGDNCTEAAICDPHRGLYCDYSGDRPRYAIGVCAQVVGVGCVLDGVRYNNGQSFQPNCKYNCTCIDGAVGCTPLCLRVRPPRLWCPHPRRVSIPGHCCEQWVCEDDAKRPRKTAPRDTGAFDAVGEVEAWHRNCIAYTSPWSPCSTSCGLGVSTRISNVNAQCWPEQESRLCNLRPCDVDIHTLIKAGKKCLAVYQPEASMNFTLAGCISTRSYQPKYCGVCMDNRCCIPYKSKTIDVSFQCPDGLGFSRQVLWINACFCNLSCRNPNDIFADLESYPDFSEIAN
The series can be described thus: Binding to CCN4 (Dianthus system). The conditions noted are these: Figure S7a. As to the method:
as §1

The target of series [3] is T7, recombinant human CTGF‐His tag (connective tissue growth factor) (human, UniProt P29279 27-349, labeled with fluorescent dye Monolith RED‐NHS).
T7 construct: connective tissue growth factor (CTGF/CCN2), human, recombinant; also called CCN2; rhCTGF‐His tag protein; source: bought: Novoprotein (C15W), purified
T7 sequence (looked up): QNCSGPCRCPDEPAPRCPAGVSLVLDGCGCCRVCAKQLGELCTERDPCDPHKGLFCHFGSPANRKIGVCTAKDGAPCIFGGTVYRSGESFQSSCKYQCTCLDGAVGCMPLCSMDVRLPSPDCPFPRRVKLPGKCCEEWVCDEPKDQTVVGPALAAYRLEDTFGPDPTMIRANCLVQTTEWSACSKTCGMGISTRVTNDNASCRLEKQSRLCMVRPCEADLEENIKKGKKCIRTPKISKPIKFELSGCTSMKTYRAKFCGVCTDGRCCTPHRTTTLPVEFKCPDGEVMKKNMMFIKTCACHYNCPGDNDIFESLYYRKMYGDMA
As to the kind of experiment: MST; proteins labeled with Monolith RED-NHS; 2 × 10^-6 M protein (10 µL) mixed with variable concentrations of peptide in PBST (10 µL, PBS with 0.05% Tween-20); Monolith NT.115. Particulars: both partners purified.

Series [4] concerns the target T8, recombinant human CTGF‐His tag (connective tissue growth factor) (human), P29279.
T8 chain: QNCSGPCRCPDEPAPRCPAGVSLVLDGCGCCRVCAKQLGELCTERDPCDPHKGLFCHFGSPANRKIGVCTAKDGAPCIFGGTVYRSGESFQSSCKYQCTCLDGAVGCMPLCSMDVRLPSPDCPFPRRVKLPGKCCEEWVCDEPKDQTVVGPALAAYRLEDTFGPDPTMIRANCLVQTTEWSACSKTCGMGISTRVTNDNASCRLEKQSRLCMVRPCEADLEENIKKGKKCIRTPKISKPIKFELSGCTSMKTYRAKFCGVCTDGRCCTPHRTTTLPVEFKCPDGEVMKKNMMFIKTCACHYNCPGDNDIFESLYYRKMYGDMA
The series is described as above.

In general, Kd refers to a measure of binding affinity in units of concentration. Turning to `CC(C)C[C@H](NC(=O)[C@H](Cc1ccc(O)cc1)NC(=O)[C@H](Cc1c[nH]cn1)NC(=O)[C@H](C)NC(=O)[C@H](C)NC(=O)[C@H](CO)NC(=O)[C@@H]1CCCN1C(=O)[C@@H](N)CS)C(N)=O` [CL8, reference compound] (H-CPSAAHYL-NH2), the hemolysis safety result in the series with red blood cells is given as “good hemolysis safety”. This molecule also showed a Kd at rhCTGF‐His tag protein of 1.23 µM.

For “H-CPSAAHYL-PEG3-[Pra(M6P)βAla]3-NH2 [CL8‐M6P3, peptide-based CTGF-LYTAC: CL8 conjugated to glycopeptide scaffold M6P3 by a PEG3 linker]”, the hemolysis safety entry with red blood cells is reported as “good hemolysis safety”. Also, the “extracellular CTGF degraded” value on CTGF is listed as “≈ 50%”. Besides, the “interaction with IGFBP domain of CTGF” value in series [1] is listed as “interacts”. In addition, the “binding interaction with CCN3” value at CCN3 is “no binding interactions”. The “interaction with TSP domain of CTGF” value in series [2] is on record as “interacts”. The “binding interaction with CCN1” value at CCN1 is recorded as “no binding interactions”. The “binding interaction with CCN4” value at CCN4 is given as “no binding interactions”.

In the case of CPSAAHYL (not fully specified (C-terminus)) [CL8‐M6P3], the Kd in series [3] was 13.4 µM.

As for CPSAAHYL (modifications not checked) [CL8 peptide], in series [4], the Kd was 1.23 µM.
